# Data as given in publication PMC7998250, “Temperate Zone Plant Natural Products—A Novel Resource for Activity against Tropical Parasitic Diseases” (Pharmaceuticals, 2021).
# Like-named read-outs stand apart in the source and are kept apart here.
# Key:
# [1] = system: P. falciparum Dd2Luc intraerythrocytic trophozoites; assay: Initial screen, intraerythrocytic P. falciparum, Malaria SYBR-Green I fluorescence assay; type: cell-based, Plasmodium falciparum
# Protocol: (§1) 634 compounds from the PhytoQuest Phytopure temperate plant natural product library were screened for growth inhibitory activity against L. mexicana axenic amastigotes, T. brucei bloodstream form, intraerythrocytic asexual P. falciparum (at 2 μM) and T. evansi bloodstream form parasites (at 1 μM). […] Our initial hits were defined as reducing growth of the parasite by ≥50%. […]
# (§2) The PhytoQuest Phytopure library is a commercially available collection of purified compounds isolated predominantly from temperate zone plants, with structures confirmed by NMR and mass spectrometry. The library was provided as 634 non-polar compounds (1 mg/mL in DMSO). Initial screening was performed in a 96-well plate with 200 μL of parasite culture. The initial screen used each compound at a final concentration of 2 μM for L. mexicana axenic amastigotes, T. brucei and P. falciparum, and at 1 μM for T. evansi. L. mexicana axenic amastigotes were plated at 1 × 10^6 cells/mL, incubated for 72 h, and the Alamar Blue assay was used to assess parasite growth. Each compound was tested in triplicate, with two biological replicates (n = 6). T. brucei and T. evansi were plated at 1×10^5 cells/mL for 48 h, and the Alamar Blue assay was used to assess parasite growth. Each compound was tested in triplicate with two biological replicates (n = 6). Intraerythrocytic P. falciparum in the trophozoite stage were seeded at 0.5% parasitaemia and 2% haematocrit for 48 h, and the Malaria SYBR-Green I fluorescence assay was used to assess parasite growth. Each compound was tested in duplicate with two biological replicates (n = 4). Negative controls comprised an equivalent volume of DMSO (equivalent of 1% v/v) to normalise the growth data. Data points >100% growth and <0% growth were tabulated as 100% and 0%, respectively. Some compounds were not tested in all parasite lines as there was insufficient material remaining.
# [2] = system: T. evansi bloodstream form; assay: Initial screen, T. evansi bloodstream form, Alamar Blue; type: cell-based, Trypanosoma evansi; details: Trypanosoma evansi; for activity at 1 µM: initial screen; for inhibition of growth at 1 µM: x = initial hit, read-out: initial hit T.e
# Protocol: (§3) 634 compounds from the PhytoQuest Phytopure temperate plant natural product library were screened for growth inhibitory activity against L. mexicana axenic amastigotes, T. brucei bloodstream form, intraerythrocytic asexual P. falciparum (at 2 μM) and T. evansi bloodstream form parasites (at 1 μM). […] Our initial hits were defined as reducing growth of the parasite by ≥50%.
# (§4) L. mexicana strain MNYC/BZ/62/M379 and L. donovani strain LdBOB (a clonal line from strain MHOM/SD/62/1S-CL2) were maintained in vitro in the procyclic promastigote stage. Parasites were cultivated at 26 °C in Schneider’s medium (Gibco) pH 7.0 containing 10% FBS, 100 U/mL penicillin (Lonza) and 100 μg/mL streptomycin (Lonza) as previously described. Differentiation into axenic amastigotes was performed as described previously. Briefly, axenic amastigotes were cultivated at 32 °C in Schneider’s medium pH 5.5 containing 10% FBS, 100 U/mL penicillin (Lonza) and 100 μg/mL streptomycin (Lonza). Bloodstream form T. brucei brucei strain Lister 427 and T. evansi strain Antat 3/3 [59] were maintained in vitro at 37 °C with 5% (v/v) CO2 in HMI-11 medium supplemented with 10% FBS, as described elsewhere. Intraerythrocytic cultures of P. falciparum Dd2^Luc strain [62] were maintained at 37 °C in a 1% O2:3% CO2:96% N2 atmosphere in RPMI-1640 containing 37.5 mM HEPES, 5 mM NaOH, 10 mM D-glucose, 2 mM L-glutamine, 100 μM hypoxanthine, […] gentamicin sulfate, 5% human serum and 5% albumax-II and 2% haematocrit erythrocytes. When required, cultures were synchronised to ring stages using the sorbitol lysis method. Preliminary cytotoxicity screening was assessed using HepG2 cells. These cells were maintained in vitro at 37 °C with 5% (v/v) CO2 in DMEM (Sigma) pH 7 supplemented with 10% FBS, 100 U/mL penicillin (Lonza) and 100 μg/mL streptomycin (Lonza), as previously described. The human monocyte cell line THP-1 [68] was maintained in vitro by culturing at 37 °C with 5% (v/v) CO2 in complete RPMI medium (Dutch modified RPMI-1640 (Gibco) containing 10% FBS and 2 mM L-glutamine (Gibco)). Differentiation of THP-1 cells into macrophages was performed by seeding 2.5 × 10^5 cells/mL in complete RPMI media, supplemented with 20 ng/mL phorbol 12-myristate 13-acetate (PMA), followed by incubation at 37 °C with 5% (v/v) CO2 for 24 h.
# as §2, with “The” for “The PhytoQuest Phytopure library is a commercially available collection of purified compounds isolated predominantly from temperate zone plants, with structures confirmed by NMR and mass spectrometry. The”
# [3] = system: T. brucei bloodstream form; assay: Initial screen, T. brucei bloodstream form, Alamar Blue; type: cell-based, Trypanosoma brucei brucei; details: for activity at 2 µM / inhibition of growth at 2 µM: Trypanosoma brucei; for activity at 2 µM: initial screen; for initial hit against T. brucei / inhibition of growth at 2 µM: 2 μM; for initial hit against T. brucei: growth reduced by ≥50%; for inhibition of growth at 2 µM: x = initial hit, read-out: initial hit T.b
# Protocol: as §3, §4
# as §2, with “The” for “The PhytoQuest Phytopure library is a commercially available collection of purified compounds isolated predominantly from temperate zone plants, with structures confirmed by NMR and mass spectrometry. The”
# [4] = system: L. mexicana axenic amastigotes; assay: Initial screen, L. mexicana axenic amastigotes, Alamar Blue; type: cell-based, Leishmania mexicana
# Protocol: as §1, §2
# T. brucei = assay: Concentration-response EC50, T. brucei; type: cell-based, Trypanosoma brucei brucei; details: Trypanosoma brucei, 48 h, bloodstream form, 48 h; read-out: T. brucei EC50
# Protocol: EC50 values were determined by serial two-fold dilution of each compound in 96 well plates. Culture conditions and viability assays were as stated for the initial screen, with some exceptions. L. mexicana and L. donovani axenic amastigotes were seeded at 2 × 10^6 cell/s mL, T. brucei and T. evansi were seeded at 2 × 10^5 cells/mL. For cytotoxicity studies, HepG2 cells were seeded at 1 × 10^5 cells/mL, incubated for 48 h and viability was assessed using the Alamar Blue assay [66, 67]. […] Normalised growth and viability data (compared to untreated controls) were plotted against Log10 concentration to estimate EC50 in GraphPad (Prism v6).
# in vitro = details: human, pH 7, HepG2 CC50
# Excerpt: Initial hits from the parasite panel screen were taken forward in log concentration versus normalised response assays to estimate the half maximal effective concentration (EC50) in hit species as well as the half maximal cytotoxic concentrations (CC50) in the human hepatoma cell line HepG2 as a preliminary test for selectivity. Using CC50/EC50 to define the selectivity index (SI), the selectivity for each compound in a defined species compared to a human cell line was estimated and compared to the EC50 (Figure 3).
# as §4
# EC50 values were determined by serial two-fold dilution of each compound in 96 well plates. Culture conditions and viability assays were as stated for the initial screen, with some exceptions. L. mexicana and L. donovani axenic amastigotes were seeded at 2 × 10^6 cell/s mL, T. brucei and T. evansi were seeded at 2 × 10^5 cells/mL. For cytotoxicity studies, HepG2 cells were seeded at 1 × 10^5 cells/mL, incubated for 48 h and viability was assessed using the Alamar Blue assay. Differentiated THP-1 cells were seeded at 5 × 10^4 cells/mL, incubated for 48 h, and viability was assessed by the Alamar Blue assay. Normalised growth and viability data (compared to untreated controls) were plotted against Log10 concentration to estimate EC50 in GraphPad (Prism v6). Bioluminescence relative rate of kill assays in asexual intraerythrocytic P. falciparum Dd2^Luc were carried out as described.
# [5] = Plasmodium falciparum, 48 h, read-out: %growth P. falciparum, mean % growth compared to a normalised control with same concentration of DMSO solvent, initial screen
# [6] = mean % growth compared to a normalised control with same concentration of DMSO solvent, read-out: % growth T. evansi
# [7] = mean % growth compared to a normalised control with same concentration of DMSO solvent, read-out: % growth T. b. brucei
# [8] = Leishmania mexicana, read-out: % growth L. mexicana, mean % growth compared to a normalised control with same concentration of DMSO solvent, initial screen
# [9] = Plasmodium falciparum, 48 h, read-out: mean % growth, P. falciparum, initial screen, compared to a normalised control with same concentration of DMSO solvent
# [10] = compared to a normalised control with same concentration of DMSO solvent, read-out: mean % growth, T. evansi
# [11] = compared to a normalised control with same concentration of DMSO solvent, read-out: mean % growth, T. b. brucei
# [12] = Leishmania mexicana, read-out: mean % growth, L. mexicana, initial screen, compared to a normalised control with same concentration of DMSO solvent
Structure (SMILES),"activity at 2 µM [1, 5] [%]","inhibition of growth at 2 µM ([1]; Plasmodium falciparum, 48 h, read-out: initial hit P.f) [%]","activity at 1 µM [2, 6] [%]","activity at 2 µM [3, 7] [%]","activity at 2 µM [4, 8] [%]",activity against P. falciparum in screen ([1]; 2 μM),EC50 (T. brucei) [nM],initial hit against T. brucei [3],inhibition of growth at 2 µM [3] [%],CC50 at 48 h (in vitro) [nM],"decrease of L. mexicana survival ([4]; 2 μM, 72 h) [%]",inhibition of growth at 1 µM [2] [%],"activity at 2 µM [1, 9] [%]","activity at 1 µM [2, 10] [%]","activity at 2 µM [3, 11] [%]","activity at 2 µM [4, 12] [%]","initial hit against L. mexicana ([4]; 2 μM, growth inhibited by ≥80%)","inhibition of growth at 2 µM ([4]; Leishmania mexicana, 2 μM, x = initial hit, read-out: initial hit L.m) [%]"
"CC(=O)OC1C(O)C(C)OC(OC2C(OC(=O)C3C[C@@H]4OC5(CC(OC(=O)/C=C/c6ccccc6)[C@@H](C)CO5)C(O)(CO)[C@@H]4CO3)OC(C)C(O)C2OC(C)=O)C1O (single isomer, unassigned) [Compound 700047]",41.8,> 50,90.2,61,60,–,–,–,–,–,–,–,–,–,–,–,–,–
CC(C)c1ccc2c(c1)CCC1C(C)(C=O)CCCC21C (stereo not shown) [Compound 700014],107,–,93,25.2,56.9,neither 700014 or 700063 showed activity against P. falciparum,1100,initial hits,> 50,40000,~70,–,–,–,–,–,–,–
CC(C)c1ccc2c(c1)CCC1C(CCCC1C(=O)O)O2 (stereo not shown) [Compound 700110],105,–,47.9,87.2,52.4,–,–,–,–,–,–,> 50,–,–,–,–,–,–
C/C1=C\C2OC(=O)C(=O)C2CC/C(C(=O)OC2OC(CO)C(O)C(O)C2O)=C\CC1 (stereo not shown) [Compound 700458],–,–,–,–,–,–,–,–,–,–,–,> 50,119,48.2,78.2,48.5,–,–
O=C1C=CC(O)(c2cc(=O)c3c(O)cc(O)cc3o2)C=C1 [Compound 700586],–,–,–,–,–,–,630,initial hits,> 50,3600,–,–,77,–,3.1,56.5,–,–
COc1cc2ccc(=O)oc2c(OC)c1OCC1C(C)=CCC2C(C)(C)C(O)CCC12C (stereo not shown) [Compound 700867],–,–,–,–,–,–,2600,initial hits,> 50,27000,–,–,104,126,19.3,60.7,–,–
CC(C)C(=O)OC1C2C(CC(C)C3C=CC(=O)C31C)OC(=O)C2C (stereo not shown) [Compound 701156],–,–,–,–,–,–,990,initial hits,> 50,–,–,–,93.7,113,24.3,52.7,–,–
C#CC#CCc1ccccc1C(=O)OC [Compound 701248],–,–,–,–,–,–,–,–,–,–,–,–,100,–,60.9,19.2,initial hits,> 80
